This experiment concerns the target T1, SLK (Homo sapiens, UniProt Q9H2G2).
T1 construct: purchased Thermo Fisher Scientific (Life Technologies) SelectScreen
Nature of the experiment: SelectScreen LanthaScreen. The experiment is classed as binding. The note with it: read-out: % displacement. Put shortly:
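Percent values come from Thermo SelectScreen profiling of NU5455, combining activity and binding assays. CSF1R was run in Z'LYTE format at Km app ATP, and CAMK1 in Adapta format with ATP listed at 10.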
Background: Time-resolved FRET reads energy transfer from a long-lived donor to a nearby acceptor.

T1 sequence (Q9H2G2 whole entry): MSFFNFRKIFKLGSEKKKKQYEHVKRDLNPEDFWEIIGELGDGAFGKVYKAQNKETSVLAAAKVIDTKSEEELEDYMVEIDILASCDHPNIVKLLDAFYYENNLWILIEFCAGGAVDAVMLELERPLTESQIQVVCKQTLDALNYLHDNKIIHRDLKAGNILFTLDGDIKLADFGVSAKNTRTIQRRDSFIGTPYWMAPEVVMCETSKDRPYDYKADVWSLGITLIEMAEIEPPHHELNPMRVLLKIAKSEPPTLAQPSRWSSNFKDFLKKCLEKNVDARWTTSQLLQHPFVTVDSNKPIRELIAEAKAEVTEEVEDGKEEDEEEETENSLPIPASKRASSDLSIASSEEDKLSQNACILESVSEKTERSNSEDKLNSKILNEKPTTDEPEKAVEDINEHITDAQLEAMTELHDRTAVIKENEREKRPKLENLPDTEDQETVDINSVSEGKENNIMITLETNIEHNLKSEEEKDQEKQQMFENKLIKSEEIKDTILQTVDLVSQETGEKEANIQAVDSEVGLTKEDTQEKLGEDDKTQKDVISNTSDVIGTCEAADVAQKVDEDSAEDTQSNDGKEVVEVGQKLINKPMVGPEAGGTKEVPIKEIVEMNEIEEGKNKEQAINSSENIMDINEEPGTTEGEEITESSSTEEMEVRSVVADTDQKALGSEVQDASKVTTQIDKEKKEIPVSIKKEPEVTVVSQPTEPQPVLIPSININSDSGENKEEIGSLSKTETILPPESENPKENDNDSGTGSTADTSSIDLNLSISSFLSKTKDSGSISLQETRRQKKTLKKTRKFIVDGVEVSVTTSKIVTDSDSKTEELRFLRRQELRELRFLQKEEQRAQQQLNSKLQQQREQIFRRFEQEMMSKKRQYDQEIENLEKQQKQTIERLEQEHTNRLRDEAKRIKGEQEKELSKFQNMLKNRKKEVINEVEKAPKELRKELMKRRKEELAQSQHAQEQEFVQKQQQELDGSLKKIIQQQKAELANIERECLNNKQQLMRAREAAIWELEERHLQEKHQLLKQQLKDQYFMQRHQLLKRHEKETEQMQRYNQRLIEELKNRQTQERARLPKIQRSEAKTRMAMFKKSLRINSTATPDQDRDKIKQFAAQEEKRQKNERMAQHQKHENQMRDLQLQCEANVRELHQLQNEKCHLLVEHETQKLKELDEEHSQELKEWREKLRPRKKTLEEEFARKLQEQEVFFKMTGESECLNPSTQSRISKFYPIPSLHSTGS

Consider `CN(C(=O)CN1CCOCC1)c1ccc2sc3c(-c4cccc5c(=O)cc(N6CC7CCC(C6)O7)oc45)cccc3c2c1` [NU5455], for which the inhibition at 1 µM turned out to be 1.5%.

For the origin of these results see PMC6934184, “Selective DNA-PKcs inhibition extends the therapeutic index of localized radiotherapy and chemotherapy” (The Journal of Clinical Investigation, 2019).
